{"source": "patent US11219607B2", "about": "“Methods for suppressing cancer-related cachexia” (Ohio State Innovation Foundation, priority 2013, dated 2022)", "tested_on": "Atrogin-1/MAFbx mRNA", "test": "qPCR of gastrocnemius muscle, C-26 model: Atrogin-1", "type": "in vivo, CD2F1 mice", "conditions": "C-26 tumor-bearing mice, 15 days after tumor cell injection, tumor-bearing/vehicle 29.4±3.5-fold, mean±S.D.", "method": "Total RNA was isolated from homogenized gastrocnemius muscles (n=3/group) with TRIzol reagent (Life Technologies, Carlsbad, Calif.) and then purified using the RNAeasy Mini Kit (Qiagen, Valencia, Calif.). qRT-PCR was performed as described previously (42) by using the Bio-Rad CFX96 Real-Time PCR Detection System with iQ SYBR Green Supermix (Bio-Rad, Hercules, Calif.). RNA-seq library generation and data analysis were performed at The Ohio State University Comprehensive Cancer Center (OSUCCC) Nucleic Acid Shared Resource.\nAR-42 was able to restore expression of Atrogin-1 (2.7±0.7-fold) and MuRF1 (1.1±0.2-fold) mRNA to basal levels […]."}
{"smiles": "CC(C)[C@H](C(=O)Nc1ccc(C(=O)NO)cc1)c1ccccc1", "note": "[AR-42, (S)—N-hydroxy-4-(3-methyl-2-phenylbutanamido)benzamide]", "values": [{"measurement": "Atrogin-1 mRNA level relative to tumor-free/vehicle control", "result": "2.7±0.7", "unit": "fold"}]}
